Source: US9932381B2, “Exendin-4 derivatives as selective glucagon receptor agonists” (priority 2014, dated 2018)
Like-named read-outs stand apart in the source and are kept apart here. Non-standard residues stand in square brackets, D forms with d. Residues, ends and D or L forms follow the SMILES beside them. Ala(4-thiazolyl) = N[C@@H](Cc1cscn1)C(=O)O; 1Nal = N[C@@H](Cc1cccc2ccccc12)C(=O)O

Molecular target: T1, human glucagon receptor (hGLUC R) (Homo sapiens, UniProt P47871)
T1 construct: expressed in transfected cells; host or cells: HEK-293
T1 sequence (P47871 26-477): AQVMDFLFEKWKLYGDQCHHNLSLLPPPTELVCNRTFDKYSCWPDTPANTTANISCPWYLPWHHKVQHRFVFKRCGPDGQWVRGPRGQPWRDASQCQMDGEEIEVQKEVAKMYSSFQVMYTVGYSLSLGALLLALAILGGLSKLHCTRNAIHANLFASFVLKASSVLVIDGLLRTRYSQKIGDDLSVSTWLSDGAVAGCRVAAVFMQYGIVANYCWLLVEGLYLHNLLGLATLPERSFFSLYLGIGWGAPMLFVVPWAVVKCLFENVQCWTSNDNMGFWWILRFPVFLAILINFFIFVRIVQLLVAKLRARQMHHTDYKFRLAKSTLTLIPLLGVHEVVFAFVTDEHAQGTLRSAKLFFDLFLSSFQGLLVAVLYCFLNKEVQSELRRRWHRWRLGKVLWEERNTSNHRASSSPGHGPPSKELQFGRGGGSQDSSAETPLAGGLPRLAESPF
Experiment: cAMP response (HTRF) of HEK-293 cells stably expressing human glucagon receptor
Format: cell-based
Experimental: cAMP content of cells was determined using a kit from Cisbio Corp. (cat. no. 62AM4PEC) based on HTRF (Homogenous Time Resolved Fluorescence). For preparation, cells were split into T175 culture flasks and grown overnight to near confluency in medium (DMEM/10% FBS). Medium was then removed and cells washed with PBS lacking calcium and magnesium, followed by proteinase treatment with accutase (Sigma-Aldrich cat. no. A6964). Detached cells were washed and resuspended in assay buffer (1×HBSS; 20 mM HEPES, 0.1% BSA, 2 mM IBMX) and cellular density determined. They were then diluted to 400000 cells/ml and 25 μl-aliquots dispensed into the wells of 96-well plates. For measurement, 25 μl of test compound in assay buffer was added to the wells, followed by incubation for 30 minutes at room temperature.

[1] = Table 4, read-out: EC50 hGLUC R

EC50 (Table 5, Tza vs. His in position 1, read-out: EC50 hGlucagon-R) [pM] | EC50 [1] [pM] | Structure (SMILES)
1 |  | CC[C@H](C)[C@H](NC(=O)[C@H](Cc1ccccc1)NC(=O)[C@H](CCC(=O)O)NC(=O)[C@H](CCC(N)=O)NC(=O)[C@H](C)NC(=O)[C@H](CCCNC(=N)N)NC(=O)[C@H](CCCNC(=N)N)NC(=O)[C@H](CO)NC(=O)[C@H](CCC(=O)O)NC(=O)[C@H](CC(C)C)NC(=O)[C@H](CCC(N)=O)NC(=O)[C@H](CCCCN)NC(=O)[C@H](CO)NC(=O)[C@H](Cc1ccc(O)cc1)NC(=O)[C@H](CC(=O)O)NC(=O)[C@H](CO)NC(=O)[C@@H](NC(=O)[C@H](Cc1ccccc1)NC(=O)[C@@H](NC(=O)CNC(=O)[C@H](CCC(N)=O)NC(=O)[C@H](CO)NC(=O)[C@@H](N)Cc1c[nH]cn1)[C@@H](C)O)[C@@H](C)O)C(=O)N[C@@H](CCC(=O)O)C(=O)N[C@@H](Cc1c[nH]c2ccccc12)C(=O)N[C@@H](CC(C)C)C(=O)N[C@@H](CC(C)C)C(=O)N[C@@H](C)C(=O)NCC(=O)NCC(=O)N1CCC[C@H]1C(=O)N[C@@H](CCC(=O)O)C(=O)N[C@@H](CO)C(=O)NCC(=O)N[C@@H](C)C(=O)N1CCC[C@H]1C(=O)N1CCC[C@H]1C(=O)N1CCC[C@H]1C(=O)N[C@@H](CO)C(=O)O [SEQ ID NO 28, HSQGTFTSDYSKQLESRRAQEFIEWLLAGGPESGAPPPS-OH, reference compound]
 | 1 | CC[C@H](C)[C@H](NC(=O)[C@H](Cc1ccccc1)NC(=O)[C@H](CC(=O)O)NC(=O)[C@H](CCC(N)=O)NC(=O)[C@H](C)NC(=O)[C@H](CCCNC(=N)N)NC(=O)[C@H](CCCNC(=N)N)NC(=O)[C@H](CO)NC(=O)[C@H](CCC(=O)O)NC(=O)[C@H](CC(C)C)NC(=O)[C@H](CCC(N)=O)NC(=O)[C@H](CCCCN)NC(=O)[C@H](CO)NC(=O)[C@H](Cc1cccc2ccccc12)NC(=O)[C@H](CC(=O)O)NC(=O)[C@H](CO)NC(=O)[C@@H](NC(=O)[C@H](Cc1ccccc1)NC(=O)[C@@H](NC(=O)CNC(=O)[C@H](CCC(N)=O)NC(=O)[C@H](CO)NC(=O)[C@@H](N)Cc1cscn1)[C@@H](C)O)[C@@H](C)O)C(=O)N[C@@H](CCC(=O)O)C(=O)N[C@@H](Cc1c[nH]c2ccccc12)C(=O)N[C@@H](CC(C)C)C(=O)N[C@@H](CC(C)C)C(=O)N[C@@H](C)C(=O)N[C@H](C(=O)NCC(=O)N1CCC[C@H]1C(=O)N[C@@H](CCC(=O)O)C(=O)N[C@@H](CO)C(=O)NCC(=O)N[C@@H](C)C(=O)N1CCC[C@H]1C(=O)N1CCC[C@H]1C(=O)N1CCC[C@H]1C(=O)N[C@@H](CO)C(=O)O)[C@@H](C)O [SEQ ID NO 22, Tza-S-Q-G-T-F-T-S-D-1Nal-SKQLESRRAQDFIEWLLATGPESGAPPPS-OH] (H-[Ala(4-thiazolyl)]SQGTFTSD[1Nal]SKQLESRRAQDFIEWLLATGPESGAPPPS-OH; N-terminus assumed)
 | 1 | CCCC[C@H](NC(=O)[C@H](CCC(N)=O)NC(=O)[C@H](CCCCN)NC(=O)[C@H](CO)NC(=O)[C@H](Cc1ccc(O)cc1)NC(=O)[C@H](CC(=O)O)NC(=O)[C@H](CO)NC(=O)[C@@H](NC(=O)[C@H](Cc1ccccc1)NC(=O)[C@@H](NC(=O)CNC(=O)[C@H](CCC(N)=O)NC(=O)[C@H](CO)NC(=O)[C@@H](N)Cc1cscn1)[C@@H](C)O)[C@@H](C)O)C(=O)N[C@@H](CCC(=O)O)C(=O)N[C@@H](CO)C(=O)N[C@@H](CCCNC(=N)N)C(=O)N[C@@H](CCCNC(=N)N)C(=O)N[C@@H](C)C(=O)N[C@@H](CCC(N)=O)C(=O)N[C@@H](CCC(=O)O)C(=O)N[C@@H](Cc1ccccc1)C(=O)N[C@H](C(=O)N[C@@H](CCC(=O)O)C(=O)N[C@@H](Cc1c[nH]c2ccccc12)C(=O)N[C@@H](CC(C)C)C(=O)N[C@@H](CC(C)C)C(=O)N[C@@H](C)C(=O)N[C@H](C(=O)NCC(=O)N1CCC[C@H]1C(=O)N[C@@H](CCC(=O)O)C(=O)N[C@@H](CO)C(=O)NCC(=O)N[C@@H](C)C(=O)N1CCC[C@H]1C(=O)N1CCC[C@H]1C(=O)N1CCC[C@H]1C(=O)N[C@@H](CO)C(=O)O)[C@@H](C)O)[C@@H](C)CC [SEQ ID NO 17, Tza-S-Q-G-T-F-T-S-D-Y-S-K-Q-Nle-ESRRAQEFIEWLLATGPESGAPPPS-OH]
